Results published in patent US9133187B2, “Serine/threonine kinase inhibitors” (ARRAY BIOPHARMA INC., priority 2011, dated 2015).

Assays:
[1] = target: human ERK-2 (Mitogen Activated Kinase 1) (Homo sapiens (Human), UniProt P28482); test: ERK-2 Enzymatic Assay; type: biochemical; conditions: 5 nM ERK-2, 25 μM ATP, Omnia peptide S/T17; read-out: ERK Inhibition IC50
Summary of the method: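 Recombinant N-terminal 6-His human ERK-2 (aa 8-360, E. coli) with fluorescent Omnia peptide S/T17 substrate, ambient temperature, read kinetically every 50 s for ~30 min (Ex 340/Em 495 nm). Linear rates converted to percent of control; IC50 from four-parameter fit.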

HCT116 cells = test: Cell Proliferation/Viability Assay (Cell Titer-Blue, 72 h); type: cell-based; conditions: Homo sapiens, HCT-116, 3-day (72-hour) incubation
Procedure: The cytotoxic or cytostatic activity of formula I exemplary compounds was measured by: establishing a proliferating mammalian tumor cell line in a cell culture medium, adding a formula I compound, culturing the cells for a period from about 6 h to about 5 d; and measuring cell viability (Example 78). Cell-based in vitro assays were used to measure viability, i.e. proliferation (IC50), cytotoxicity (EC50).
Viable cells after a 3-day (72-hour) incubation with ERK compounds were quantified using the Cell Titer-Blue Cell Viability Assay from Promega.
Materials and Methods: HCT116 cells were plated in 96 well micro-plates at a density of 1,000 cells/well. The cells were allowed to attach to micro-plate overnight at 37° C./5% CO2. After overnight attachment, diluted compounds were then added to the cells at a final concentration of 0.5% DMSO. After 3 days (72 hours) at 37° C./5% CO2, the number of viable cells was determined using the Cell Titer-Blue Cell Viability Assay from Promega. Briefly, Cell Titer-Blue reagent were added to the cells and incubated for 1 hour. Fluorescense (560 nmexcitation/590 nmemission) was then read using a fluorescence micro-plate reader. Background from high concentration ERK-inhibited wells was subtracted. Representative date is in TABLE III (infra).

[2] = test system: PMA-stimulated P90RSK(Ser380) phosphorylation in HepG2 cells; test: Cellular P90RSK(Ser380) Phosphorylation Assay; type: cell-based; conditions: Homo sapiens, 1.5 h compound incubation, PMA stimulation, pP90RSK(Ser380) normalized to GAPDH, read-out: Cell Assay IC50
Summary of the method: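 HepG2 cells were pretreated with compound (0.5% DMSO final) for 1.5 h, then stimulated with PMA 100 ng/mL for 30 min at 37° C. Fixed, permeabilized cells were immunostained for pP90RSK(Ser380) and GAPDH. The two-channel infrared fluorescence was read, and the phospho signal was normalized to GAPDH.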

human ERK-2 (Mitogen Activated Kinase 1), sequence (P28482 8-360): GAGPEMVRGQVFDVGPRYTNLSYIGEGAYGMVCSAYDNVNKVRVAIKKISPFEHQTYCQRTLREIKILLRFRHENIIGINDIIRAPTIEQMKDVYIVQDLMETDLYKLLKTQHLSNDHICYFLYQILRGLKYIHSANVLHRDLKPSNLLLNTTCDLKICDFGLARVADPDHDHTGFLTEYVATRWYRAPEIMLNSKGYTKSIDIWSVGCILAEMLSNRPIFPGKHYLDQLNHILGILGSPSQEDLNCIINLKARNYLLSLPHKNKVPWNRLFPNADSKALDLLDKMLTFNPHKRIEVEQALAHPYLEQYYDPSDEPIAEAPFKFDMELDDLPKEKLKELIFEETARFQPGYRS

IC50 [1] [nM]	IC50 (HCT116 cells) [nM]	Structure (SMILES)	IC50 [2] [nM]
1.5	628	CC[C@@H](NC(=O)N1CCc2cnc(NC3CCOCC3)nc2C1)c1ccc(OC(F)F)cc1 [Compound I-27, (R)—N-(1-(4-(difluoromethoxy)phenyl)propyl)-2-(tetrahydro-2H-pyran-4-ylamino)-5,6-dihydropyrido[3,4-d]pyrimidine-7(8H)-carboxamide]	26.9
1.1	1900	C[C@@H](CO)Nc1ncc2c(n1)CN(C(=O)N[C@H](CCO)c1ccc(Cl)c(Cl)c1)CC2 [Compound I-33, N—((R)-1-(3,4-dichlorophenyl)-3-hydroxypropyl)-2-((S)-1-hydroxypropan-2-ylamino)-5,6-dihydropyrido[3,4-d]pyrimidine-7(8H)-carboxamide]	55
1.6	557	CC(C)Nc1ncc2c(n1)CN(C(=O)N[C@@H]1CN(C)C[C@H]1c1ccc(C(F)(F)F)c(F)c1)CC2 [Compound I-120, N-((3S,4R)-4-(3-fluoro-4-(trifluoromethyl)phenyl)-1-methylpyrrolidin-3-yl)-2-(isopropylamino)-5,6-dihydropyrido[3,4-d]pyrimidine-7(8H)-carboxamide]	37.8
3	4100	C[C@@H](CO)Nc1cc2c(cn1)CCN(C(=O)N[C@H](C)c1ccc(Cl)c(Cl)c1)C2 [Compound I-149, N—((R)-1-(3,4-dichlorophenyl)ethyl)-7-((S)-1-hydroxypropan-2-ylamino)-3,4-dihydro-2,6-naphthyridine-2(1H)-carboxamide]	75.7
62.7	–	O=C(N1CCc2cnc(NC3CCOCC3)nc2C1)N1CCCC1c1ccccn1 (stereo not drawn) [II-288, (2-Pyridin-2-yl-pyrrolidin-1-yl)-[2-(tetrahydro-pyran-4-ylamino)-5,8-dihydro-6H-pyrido[3,4-d]pyrimidin-7-yl]-methanone]	9500
3.15	–	C[C@@H](NC(=O)N1CCc2cnc(N[C@H]3C[C@@H](O)C3)nc2C1)c1ccc(Cl)c(Cl)c1 [II-371, 2-((1S,3S)-3-Hydroxy-cyclobutylamino)-5,8-dihydro-6H-pyrido[3,4-d]pyrimidine-7-carboxylic acid [(R)-1-(3,4-dichloro-phenyl)-ethyl]amide]	90

More lines, now with the values behind:

Structure (SMILES)	IC50 [1] [nM]	IC50 (HCT116 cells) [nM]	IC50 [2] [nM]
O=C(N[C@@H](c1ccc(Cl)c(Cl)c1)c1cnco1)N1CCc2cnc(NC3CCOCC3)nc2C1 [Compound I-1, (S)—N-((3,4-dichlorophenyl)(oxazol-5-yl)methyl)-2-(tetrahydro-2H-pyran-4-ylamino)-5,6-dihydropyrido[3,4-d]pyrimidine-7(8H)-carboxamide]	1.1	301	4.55
CC(C)Nc1ncc2c(n1)CN(C(=O)N[C@@H](c1ccc(C(F)(F)F)c(F)c1)[C@H]1CCCN1)CC2 [Compound I-15, N—((S)-(3-fluoro-4-(trifluoromethyl)phenyl)((R)-pyrrolidin-2-yl)methyl)-2-(isopropylamino)-5,6-dihydropyrido[3,4-d]pyrimidine-7(8H)-carboxamide]	1.1	625	37.3
CC(C)Nc1ncc2c(n1)CN(C(=O)N[C@H](CO)c1ccc(Cl)c(Cl)c1)CC2 [Compound I-16, (S)—N-(1-(3,4-dichlorophenyl)-2-hydroxyethyl)-2-(isopropylamino)-5,6-dihydropyrido[3,4-d]pyrimidine-7(8H)-carboxamide]	1.1	2100	52.4
COCC[C@@H](NC(=O)N1CCc2cnc(NC3CCOCC3)nc2C1)c1ccc(Cl)c(Cl)c1 [Compound I-28, (R)—N-(1-(3,4-dichlorophenyl)-3-methoxypropyl)-2-(tetrahydro-2H-pyran-4-ylamino)-5,6-dihydropyrido[3,4-d]pyrimidine-7(8H)-carboxamide]	1.6	1900	32.8
C[C@@H](NC(=O)N1CCc2cnc(N[C@H]3CC[C@H](O)C3)nc2C1)c1ccc(C(F)(F)F)c(F)c1 [Compound I-52, N—((R)-1-(3-fluoro-4-(trifluoromethyl)phenyl)ethyl)-2-((1S,3S)-3-hydroxycyclopentylamino)-5,6-dihydropyrido[3,4-d]pyrimidine-7(8H)-carboxamide]	2.7	1400	57
CC(C)Nc1ncc2c(n1)CN(C(=O)N[C@H](CCC#N)c1ccc(Cl)c(Cl)c1)CC2 [Compound I-104, (R)—N-(3-cyano-1-(3,4-dichlorophenyl)propyl)-2-(isopropylamino)-5,6-dihydropyrido[3,4-d]pyrimidine-7(8H)-carboxamide]	2.2	1600	58.6
O=C(NCc1cc2ccccc2[nH]1)N1CCc2cnc(NC3CCOCC3)nc2C1 [Compound I-114, N-((1H-indol-2-yl)methyl)-2-(tetrahydro-2H-pyran-4-ylamino)-5,6-dihydropyrido[3,4-d]pyrimidine-7(8H)-carboxamide]	23.2	1500	25.4
CN1C[C@@H](NC(=O)N2CCc3cnc(NC4CCOCC4)nc3C2)[C@H](c2ccc(Cl)c(F)c2)C1 [Compound I-124, N-((3S,4R)-4-(4-chloro-3-fluorophenyl)-1-methylpyrrolidin-3-yl)-2-(tetrahydro-2H-pyran-4-ylamino)-5,6-dihydropyrido[3,4-d]pyrimidine-7(8H)-carboxamide]	2.3	47.5	5.95
N#CCN1C[C@@H](NC(=O)N2CCc3cnc(NC4CCOCC4)nc3C2)[C@H](c2ccc(F)c(F)c2)C1 [II-341, 2-(Tetrahydro-pyran-4-ylamino)-5,8-dihydro-6H-pyrido[3,4-d]pyrimidine-7-carboxylic acid [(3S,4R)-1-cyanomethyl-4-(3,4-difluoro-phenyl)-pyrrolidin-3-yl]-amide]	4	–	371
C[C@@H](NC(=O)N1CCc2cnc(NC3CC(F)(F)C3)nc2C1)c1ccc(Cl)c(Cl)c1 [II-355, 2-(3,3-Difluoro-cyclobutylamino)-5,8-dihydro-6H-pyrido[3,4-d]pyrimidine-7-carboxylic acid [(R)-1-(3,4-dichloro-phenyl)-ethyl]-amide]	7.5	–	970
COCC[C@@H](CO)Nc1ncc2c(n1)CN(C(=O)N[C@H](C)c1ccc(Cl)c(Cl)c1)CC2 [II-399, 2-((S)-1-Hydroxymethyl-3-methoxy-propylamino)-5,8-dihydro-6H-pyrido[3,4-d]pyrimidine-7-carboxylic acid [(R)-1-(3,4-dichloro-phenyl)-ethyl]-amide]	3.03	–	287
CCCC(NC(=O)N1CCc2cnc(N[C@@H](C)CO)nc2C1)c1ccc(OC)c(F)c1 (stereo partly drawn) [II-415, 2-(2-Hydroxy-1-methyl-ethylamino)-5,8-dihydro-6H-pyrido[3,4-d]pyrimidine-7-carboxylic acid [1-(3-fluoro-4-methoxy-phenyl)-butyl]-amide]	2.3	–	39.5
